# Key:
# Cathepsin = test: Inflammatory markers, RT-PCR expression study in TNF-α induced FLS; assay type: cell-based; conditions: sample 10 μg/mL; FLS induced with 10 ng/ml rat TNF-α, 6 hrs; Control = 1, Induced 3.86
# Experimental: (§1) FLS cells (8×10^4 cells/well) were seeded in 24-well plates and incubated overnight at 37° C. under 5% CO2. […] RT-PCR expression study: After 6 hrs of incubation, total cellular RNA from untreated and treated cells were isolated using Trizol Reagent® (Ambion, Life Technologies), according to the manufacturer's instructions, followed by RNase-free DNase I treatment (ThermoFisher Scientific) to remove any genomic DNA. Messenger RNA quality and concentration were analyzed spectrophotometrically (NanoDrop Lite, ThermoFisher Scientific). One microgram of total RNA was reverse transcribed into cDNA using Revert-aid First Strand cDNA synthesis kit (ThermoFisher Scientific), according to the manufacturer's instructions, and stored at −80° C. until use. Then 20 μl of the reaction mixture was subjected to PCR using SYBR green qPCR master mix for amplification of cDNAs using specifically designed primers procured from Eurofins India, as an internal control, the house keeping gene § actin was co-amplified with each reaction (Table 2). PCR was carried out in Light cycler 96 (Roche Life Science) and PCR conditions for genes were initial denaturation at 95° C. for 10 min followed by 35 cycles consisting of denaturation at 95° C. for 30 seconds, annealing of primers at 60° C. for 30 seconds, extension at 72° C. for 30 seconds and final cooling at 72° C. for 30 seconds (Table 1).
# IFN-γ = test: as above; assay type: cell-based; conditions: sample 10 μg/mL; FLS induced with 10 ng/ml rat TNF-α, 6 hrs; Control = 1, Induced 5.7
# Experimental: as §1
# TNF-α = test: as above; assay type: cell-based; conditions: sample 10 μg/mL; FLS induced with 10 ng/ml rat TNF-α, 6 hrs; Control = 1, Induced 7.93
# Experimental: as §1
# MMP-3 = test: as above; assay type: cell-based; conditions: sample 10 μg/mL; FLS induced with 10 ng/ml rat TNF-α, 6 hrs; Control = 1, Induced 5.14
# Experimental: as §1
# CCL-5 = test: as above; assay type: cell-based; conditions: sample 10 μg/mL; FLS induced with 10 ng/ml rat TNF-α, 6 hrs; Control = 1, Induced 7.16
# Experimental: as §1
# [1] = tested on: collagen-induced arthritis (CIA); test: Collagen-induced arthritis study, arthritic score; assay type: in vivo, rat; conditions: positive control, 10 mg/kg; RA control is 3.5; scale 0-4; FIG. 32
# Text: The […] (Table 4) collagen-induced arthritis (CIA) is a widely studied autoimmune model of rheumatoid arthritis. In this model, autoimmune arthritis is induced by immunization with type II collagen (CII) emulsified in complete Freund's adjuvant. These animals develop an autoimmune-mediated polyarthritis that shares several clinical, histological, and immunological features with the human autoimmune disease rheumatoid arthritis. The immune response to CII is characterized by both the stimulation of collagen-specific T cells and the production of high titers of antibody specific for both the immunogen (heterologous CII) and the autoantigen (mouse or rat CII).
# Arthritis induced by administering type-2 collagen (chicken sternal cartilage, Sigma catalog no: C9301) which will be emulsified with incomplete Freund's adjuvant (FIA) at 1:1 ratio. On Day 0, Rats were intradermally injected with 200 μL (200 μg/animal) of collagen-FIA emulsion at the base of the tail (First Immunization). For booster injection the emulsion was prepared same as above and injected with 100 μL (100 μg/animal) of collagen-FIA emulsion given on day 7. Test sample administered from day 0 to day 20. […]
# [2] = tested on: Th17 and Treg cells in spleen; test: Treg and Th17 analysis in spleen (flow cytometry); assay type: in vivo, rat; conditions: spleen of CIA rats; celecoxib control; RA control at 3.5; FIG. 35
# Experimental: Spleen was obtained from collagen induced arthritis rats under sterile conditions for the lymphocyte isolation. The spleen was washed twice with PBS containing 100 μg/ml streptomycin and 100 U/ml penicillin and cut into small pieces with microsurgery scissors, homogenized with plunger end of the syringe and filtered using a 100 μm mesh strainer. The filtrate was centrifuged for 5 min at 1200 rpm, washed 1-2 times with PBS, after which 1×10^6 cells/ml were suspended in RPMI media supplemented with 10% FBS. The imbalance is effected by reducing Th17 cells and increasing T-cell (Treg) (FIGS. 33-35) with the ratio of Th17/Treg preferably as 1, or more preferably between 0-1 compared to RA control at 3.5 (FIG. 35).
# After the stimulation, cells were collected and 2×10^5 cells were aliquoted into different tubes for evaluating Th17 and Treg population. The antibody dilutions used for the analysis were as recommended by the respective manufacturer. To evaluate Th17 population, cells were initially stained with FITC Mouse Anti-Rat CD3 (559975, BD pharmingen) and APC Mouse Anti-Rat CD4 (550057, BD pharmingen) antibodies. […] FCM was performed on a BD FACSCelesta system (BD Biosciences, Franklin Lakes, N.J., USA) and analyzed using FlowJo software.
# [3] = tested on: Fibroblast-like synoviocytes (FLS); test: WST-1 proliferation assay; assay type: cell-based, rat; conditions: 20 μg/mL, 72 hours; FIG. 5
# Experimental: FLS were isolated from synovial tissues by enzymatic digestion. In short, the tissues were separated into 1-mm^3 blocks with microsurgery scissors. After which the tissues were incubated with 0.1% collagenase type II enzyme in DMEM supplemented with 10% FBS for enzymatic digestion at 37° C. for 45 min in an orbital shaker incubator (200 rpm).
# After the incubation time, the tubes were vortexed vigorously for 1-2 min to release the cells and filtered using a 100 μm mesh strainer. The filtrate was centrifuged for 5 min at 1200 rpm, the cells were resuspended in DMEM supplemented with 10% FBS and 100 μg/ml streptomycin and 100 U/ml penicillin and cultured in a humidified incubator at 37° C. under 5% CO2.
# WST-1 assay was used to measure the effect of different samples on FLS proliferation. FLS were seeded in 96-well plates at a density of 5×10^3 cells/well and incubated overnight at 37° C. under 5% CO2. After the treatment period, 100 μl WST-1 reagent (5015944001, Sigma, USA) diluted 1:10 in serum-free DMEM culture media was added to each well, and incubated at 37° C. under 5% CO2 for 2 h. The absorbance was measured at 450 nm with a reference wavelength of 610 nm.
# Bax/Bcl-2 = test: Apoptosis analysis, Bax/Bcl-2 RT-PCR expression in FLS; assay type: cell-based, rat; conditions: 24 h treatment; compared to the control; FIG. 19
# Experimental: FLS apoptosis was assessed with RT-PCR expression study. In short, FLS cells (8×10^4 cells/well) were seeded in 24-well plates and incubated overnight at 37° C. under 5% CO2. After synchronization in serum-free medium for 24 h, cells were treated with or without the presence of samples in DMEM 10% FBS for 24 h. After the treatment period, the cells were collected, total cellular RNA was isolated and processed for RT-PCR analysis (Table 3) as mentioned before.
SMILES,Cathepsin (inflammatory marker expression) (Cathepsin),IFN-γ (inflammatory marker expression) (IFN-γ),TNF-α (inflammatory marker expression) (TNF-α),MMP-3 (inflammatory marker expression) (MMP-3),CCL-5 (inflammatory marker expression) (CCL-5),arthritis score [1],ratio of Th17/Treg [2],"inhibition of FLS proliferation, trend among curcuminoid analogues [3]","Bax/Bcl-2 ratio (pro-apoptosis), ranking (Bax/Bcl-2)"
"COc1cc(/C=C/C(O)=C/C(=O)/C=C/c2ccc(O)cc2)ccc1O [DMC, demethoxycurcumin]",3.69 ± 0.14,4.43 ± 0.15,3.57 ± 1.77,4.91 ± 0.41,7.03 ± 3.03,–,–,–,–
Cc1ccc(-c2cc(C(F)(F)F)nn2-c2ccc(S(N)(=O)=O)cc2)cc1 [celecoxib],–,–,–,–,–,1,0.5,–,–
"COc1cc(/C=C/C(=O)CC(=O)/C=C/c2ccc(O)c(OC)c2)ccc1O [Curcumin, curcumin]",2.70 ± 0.14,2.7 ± 0.19,3.93 ± 0.84,3.98 ± 0.48,3.01 ± 0.04,–,–,BDMC>curcumin>DMC,BDMC>DMC>curcumin
"O=C(/C=C/c1ccc(O)cc1)CC(=O)/C=C/c1ccc(O)cc1 [BDMC, bisdemethoxycurcumin]",3.36 ± 0.37,4.57 ± 0.11,3.20 ± 2.1,6.07 ± 0.05,4.07 ± 0.05,–,–,–,–
